# Reference: patent US20260014095A1, “PATCH […] PREPARATION METHOD AND USE THEREOF” (DEMOTECH.INC., priority 2022, published 2026)
# How the values were obtained:
# [1] = Solubility of colchicine in different types of pressure-sensitive adhesives; assay type: physicochemical; settings: for State in the 4098 pressure-sensitive adhesive: 0 days; for Stability (crystallization or not) in the 4098 pressure-sensitive adhesive: room temperature for 4 months
# Method: Colchicine with different contents was dissolved in pressure-sensitive adhesive systems with different properties.
# [2] = Solubility test of colchicine in solvents; assay type: physicochemical; settings: thermodynamic from solid, 25° C.
# Method: About 2 g of the colchicine raw material was weighed and placed in a 100 ml brown volumetric flask, into which 10 ml of a solvent was added. The mixture was uniformly mixed, placed in a thermostatic oscillator with a water bath at 25° C., and observed periodically, into which the raw material was continuously added once the solution became clear. […] After the saturated solution was centrifuged in a centrifuge, the supernatant was taken and diluted to a suitable concentration, the concentration of which was then determined using the external standard method, and the solubility was calculated.
compound,measurement,setting,value
"COc1cc2c(c(OC)c1OC)-c1ccc(OC)c(=O)cc1[C@@H](NC(C)=O)CC2 [colchicine, N-(5,6,7,9-tetrahydro-1,2,3,10-tetramethoxy-9-oxobenzo[α]cycloheptatrienocycloheptatrien-7-yl)-(S)-acetamide]",State in the 4098 pressure-sensitive adhesive,[1]; content higher than 5%,semitransparent
same,State in the 4098 pressure-sensitive adhesive,[1]; content of colchicine 5% or less,transparent
same,Stability (crystallization or not) in the 4098 pressure-sensitive adhesive,[1]; content 5% or less,no crystallization is found
same,Stability (crystallization or not) in the 4098 pressure-sensitive adhesive,[1]; content more than 5%,crystallization is precipitated
same,Highest solubility of colchicine in typical acrylic pressure-sensitive adhesives,[1]; without a permeation enhancer,about 5%
same,solubility at 24 h,"[2]; 1 M triethanolamine (TEOA) in ethanol, organic solvent or mixture, 1M solution of TEOA (triethanolamine) in ethanol",740 mg/mL
same,solubility at 24 h,"[2]; organic solvent or mixture, DGME (diethylene glycol monoethyl ether)",350 mg/mL
same,solubility at 24 h,"[2]; organic solvent or mixture, Ethanol:ethyl acetate (1:1, v/v)",380 mg/mL
same,solubility at 24 h,"[2]; organic solvent or mixture, Ethyl acetate",0.48 mg/mL
same,solubility at 24 h,"[2]; organic solvent or mixture, ethanol",590 mg/mL
same,solubility at 24 h,[2]; water,> 1000 mg/mL
